Among the data in ChEMBL document CHEMBL4330110, “Discovery of an isocoumarin analogue that modulates neuronal functions via neurotrophin receptor TrkB” (Bioorg Med Chem Lett, 2019) are Activity, Ratio EC50 and EC50 values, retold here.

The source made the active and inactive calls. No cut-off for these calls is given here.

Assay [1] concerns the target T1, BDNF/NT-3 growth factors receptor (Homo sapiens, UniProt Q16620). Kind of assay: Agonist activity at EGFP-fused TrkB receptor (unknown origin) expressed in HEK293T cells assessed as increase in ERK1/2 phosphorylation after 15 mins by Western blot analysis. Type of assay: cell-based. (In general: A western blot detects proteins with antibodies after separation by electrophoresis.)
Target sequence in this assay (Q16620 32-822 limits assumed): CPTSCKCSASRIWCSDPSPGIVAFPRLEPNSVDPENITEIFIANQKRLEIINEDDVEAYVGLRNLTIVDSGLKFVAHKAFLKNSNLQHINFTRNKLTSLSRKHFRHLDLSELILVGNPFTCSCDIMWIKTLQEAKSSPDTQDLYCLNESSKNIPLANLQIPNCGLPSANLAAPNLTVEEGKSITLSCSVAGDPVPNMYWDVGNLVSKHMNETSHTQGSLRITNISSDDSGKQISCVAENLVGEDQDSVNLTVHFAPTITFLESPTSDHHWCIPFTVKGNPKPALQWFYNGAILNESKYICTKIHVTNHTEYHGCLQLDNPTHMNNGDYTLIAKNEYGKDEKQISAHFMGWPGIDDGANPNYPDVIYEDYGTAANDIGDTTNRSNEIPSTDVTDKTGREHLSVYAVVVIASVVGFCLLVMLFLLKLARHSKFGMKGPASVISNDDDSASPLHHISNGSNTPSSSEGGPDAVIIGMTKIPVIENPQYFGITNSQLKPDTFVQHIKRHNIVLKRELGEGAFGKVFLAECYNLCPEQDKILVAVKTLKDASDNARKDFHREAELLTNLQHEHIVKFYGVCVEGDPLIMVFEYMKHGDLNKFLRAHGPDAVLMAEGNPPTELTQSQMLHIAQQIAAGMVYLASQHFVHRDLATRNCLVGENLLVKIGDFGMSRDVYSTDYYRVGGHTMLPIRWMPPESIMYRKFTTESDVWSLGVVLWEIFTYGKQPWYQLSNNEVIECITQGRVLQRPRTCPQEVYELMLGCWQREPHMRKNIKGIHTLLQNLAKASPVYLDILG

Assay [2] has as its target T1, BDNF/NT-3 growth factors receptor. Kind of assay: Agonist activity at EGFP-fused TrkB receptor (unknown origin) expressed in HEK293T cells assessed as increase in TrkB phosphorylation at Y705 residue at 1 uM after 10 to 15 mins by Western blot analysis. Type of assay: cell-based.
Target sequence in this assay (Q16620 32-822 limits assumed): as above
The species named for assay [3] is Homo sapiens. Put plainly: Selectivity ratio of EC50 for RFP-fused TrkA receptor (unknown origin) expressed in HEK293T cells to EC50 for […] receptor (unknown origin) expressed in HEK293T cells. Type of assay: cell-based.
For assay [4], the target named is BDNF/NT-3 growth factors receptor (Mus musculus) (UniProt P15209). Put plainly: Agonist activity at TrkB receptor in Swiss mouse primary cortical neurons assessed as increase in PSD95 expression after 72 hrs by Western blot analysis.
Assay [5] addresses Luciferin 4-monooxygenase (Photinus pyralis) (UniProt P08659). Kind of assay: Activation of firefly luciferase activity expressed in HEK293T cells after 6 hrs by luminescence assay. Type of assay: cell-based.
Assay [6] concerns the target T1, BDNF/NT-3 growth factors receptor. Put plainly: Agonist activity at EGFP-fused TrkB receptor (unknown origin) expressed in HEK293T cells after 6 hrs by luciferase reporter gene assay. Type of assay: cell-based. (A reporter such as luciferase makes a cellular process visible.)
Target sequence in this assay (Q16620 whole entry, the tested form may be a part): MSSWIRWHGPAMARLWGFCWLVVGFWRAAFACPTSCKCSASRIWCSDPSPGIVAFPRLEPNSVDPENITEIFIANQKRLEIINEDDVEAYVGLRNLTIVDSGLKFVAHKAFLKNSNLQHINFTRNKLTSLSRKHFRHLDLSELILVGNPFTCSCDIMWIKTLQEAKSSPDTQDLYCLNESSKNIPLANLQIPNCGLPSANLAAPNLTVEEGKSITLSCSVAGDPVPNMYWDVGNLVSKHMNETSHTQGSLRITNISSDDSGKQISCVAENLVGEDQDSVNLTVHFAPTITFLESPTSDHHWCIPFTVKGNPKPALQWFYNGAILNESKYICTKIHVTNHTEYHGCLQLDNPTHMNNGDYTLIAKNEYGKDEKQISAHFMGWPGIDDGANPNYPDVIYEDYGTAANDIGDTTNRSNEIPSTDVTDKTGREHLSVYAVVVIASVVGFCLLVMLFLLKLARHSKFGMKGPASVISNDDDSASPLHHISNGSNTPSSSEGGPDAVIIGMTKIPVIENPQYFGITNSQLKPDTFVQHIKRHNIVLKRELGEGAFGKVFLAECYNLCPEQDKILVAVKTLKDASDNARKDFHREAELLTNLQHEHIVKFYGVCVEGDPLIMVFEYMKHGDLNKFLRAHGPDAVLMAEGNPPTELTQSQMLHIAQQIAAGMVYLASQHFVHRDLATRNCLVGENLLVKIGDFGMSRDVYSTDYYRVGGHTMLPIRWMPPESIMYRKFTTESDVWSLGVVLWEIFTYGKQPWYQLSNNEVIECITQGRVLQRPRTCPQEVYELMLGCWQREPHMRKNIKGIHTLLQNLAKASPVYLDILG
In assay [7] the target is BDNF/NT-3 growth factors receptor (Mus musculus) (UniProt P15209). Kind of assay: Agonist activity at TrkB receptor in Swiss mouse primary cortical neurons transfected with AAV2 Tdtomato assessed as increase in dendritic arborization at 100 nM after 72 hrs by confocal microscopic analysis.
The target is the same in assay [8]. Put plainly: Agonist activity at TrkB receptor in Swiss mouse primary cortical neurons assessed as increase in TrkB phosphorylation at Y705 residue after 15 mins by Western blot analysis.
The target is the same in assay [9]. Kind of assay: Agonist activity at TrkB receptor in Swiss mouse primary cortical neurons assessed as increase in MAP2 expression after 72 hrs by Western blot analysis.
Assay [10] has as its target T2, High affinity nerve growth factor receptor (Homo sapiens, UniProt P04629). Put plainly: Agonist activity at RFP-fused TrkA receptor (unknown origin) expressed in HEK293T cells after 6 hrs by luciferase reporter gene assay. Type of assay: cell-based.
Target sequence in this assay (P04629 whole entry, the tested form may be a part): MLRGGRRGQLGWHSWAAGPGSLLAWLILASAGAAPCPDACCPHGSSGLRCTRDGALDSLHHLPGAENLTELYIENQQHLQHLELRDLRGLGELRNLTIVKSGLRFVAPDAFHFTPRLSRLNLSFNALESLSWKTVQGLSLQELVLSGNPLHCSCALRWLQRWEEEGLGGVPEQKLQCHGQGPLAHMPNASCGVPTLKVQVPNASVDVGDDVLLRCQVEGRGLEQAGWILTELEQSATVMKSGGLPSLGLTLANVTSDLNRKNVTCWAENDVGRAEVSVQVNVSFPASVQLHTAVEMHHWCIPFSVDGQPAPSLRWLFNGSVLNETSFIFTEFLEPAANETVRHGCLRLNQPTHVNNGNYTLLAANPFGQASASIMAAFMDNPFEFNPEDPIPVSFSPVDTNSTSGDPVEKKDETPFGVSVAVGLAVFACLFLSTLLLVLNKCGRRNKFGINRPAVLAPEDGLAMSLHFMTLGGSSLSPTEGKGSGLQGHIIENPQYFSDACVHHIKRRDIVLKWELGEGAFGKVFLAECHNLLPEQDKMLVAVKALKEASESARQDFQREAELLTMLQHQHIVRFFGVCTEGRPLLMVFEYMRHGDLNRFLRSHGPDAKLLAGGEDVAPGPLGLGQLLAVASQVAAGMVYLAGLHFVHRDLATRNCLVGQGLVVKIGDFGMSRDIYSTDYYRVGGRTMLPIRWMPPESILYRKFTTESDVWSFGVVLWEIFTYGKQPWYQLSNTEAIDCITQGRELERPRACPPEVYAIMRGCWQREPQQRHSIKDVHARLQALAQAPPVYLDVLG
Assay [11] has as its target T2, High affinity nerve growth factor receptor. Kind of assay: Agonist activity at RFP-fused TrkA receptor (unknown origin) expressed in HEK293T cells assessed as increase in TrkA phosphorylation at Y490 residue at 1 uM after 10 to 15 mins by Western blot analysis. The class given is cell-based.
Target sequence in this assay (P04629 33-796 limits assumed): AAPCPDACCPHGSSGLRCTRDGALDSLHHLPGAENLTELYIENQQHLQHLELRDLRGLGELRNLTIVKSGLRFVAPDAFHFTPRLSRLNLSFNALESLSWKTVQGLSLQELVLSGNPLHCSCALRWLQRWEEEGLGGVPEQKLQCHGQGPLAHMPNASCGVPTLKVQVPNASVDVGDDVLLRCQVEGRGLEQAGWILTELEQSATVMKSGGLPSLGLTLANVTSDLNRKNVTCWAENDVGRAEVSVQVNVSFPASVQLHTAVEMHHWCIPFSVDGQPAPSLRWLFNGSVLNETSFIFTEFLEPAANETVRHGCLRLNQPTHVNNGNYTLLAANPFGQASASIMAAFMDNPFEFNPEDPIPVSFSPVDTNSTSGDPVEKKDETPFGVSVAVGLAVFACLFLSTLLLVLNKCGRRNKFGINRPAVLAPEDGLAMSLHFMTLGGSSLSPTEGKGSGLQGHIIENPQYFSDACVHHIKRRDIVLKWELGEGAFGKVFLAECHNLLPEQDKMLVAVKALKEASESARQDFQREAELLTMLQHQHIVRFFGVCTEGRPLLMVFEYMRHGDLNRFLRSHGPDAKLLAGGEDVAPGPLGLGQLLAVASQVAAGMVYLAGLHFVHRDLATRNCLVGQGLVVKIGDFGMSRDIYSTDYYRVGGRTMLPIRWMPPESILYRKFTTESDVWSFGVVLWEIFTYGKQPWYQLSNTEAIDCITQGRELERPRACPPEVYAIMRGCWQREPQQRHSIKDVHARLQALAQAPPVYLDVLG
For assay [12], the target named is T1, BDNF/NT-3 growth factors receptor. Kind of assay: Agonist activity at EGFP-fused TrkB receptor (unknown origin) expressed in HEK293T cells assessed as increase in TrkB phosphorylation at Y705 residue after 10 to 15 mins by Western blot analysis. Type of assay: cell-based.
Target sequence in this assay (Q16620 32-822 limits assumed): as the sequence (Q16620 32-822 limits assumed) above

Chain of BDNF/NT-3 growth factors receptor (Mus musculus) (P15209 whole entry): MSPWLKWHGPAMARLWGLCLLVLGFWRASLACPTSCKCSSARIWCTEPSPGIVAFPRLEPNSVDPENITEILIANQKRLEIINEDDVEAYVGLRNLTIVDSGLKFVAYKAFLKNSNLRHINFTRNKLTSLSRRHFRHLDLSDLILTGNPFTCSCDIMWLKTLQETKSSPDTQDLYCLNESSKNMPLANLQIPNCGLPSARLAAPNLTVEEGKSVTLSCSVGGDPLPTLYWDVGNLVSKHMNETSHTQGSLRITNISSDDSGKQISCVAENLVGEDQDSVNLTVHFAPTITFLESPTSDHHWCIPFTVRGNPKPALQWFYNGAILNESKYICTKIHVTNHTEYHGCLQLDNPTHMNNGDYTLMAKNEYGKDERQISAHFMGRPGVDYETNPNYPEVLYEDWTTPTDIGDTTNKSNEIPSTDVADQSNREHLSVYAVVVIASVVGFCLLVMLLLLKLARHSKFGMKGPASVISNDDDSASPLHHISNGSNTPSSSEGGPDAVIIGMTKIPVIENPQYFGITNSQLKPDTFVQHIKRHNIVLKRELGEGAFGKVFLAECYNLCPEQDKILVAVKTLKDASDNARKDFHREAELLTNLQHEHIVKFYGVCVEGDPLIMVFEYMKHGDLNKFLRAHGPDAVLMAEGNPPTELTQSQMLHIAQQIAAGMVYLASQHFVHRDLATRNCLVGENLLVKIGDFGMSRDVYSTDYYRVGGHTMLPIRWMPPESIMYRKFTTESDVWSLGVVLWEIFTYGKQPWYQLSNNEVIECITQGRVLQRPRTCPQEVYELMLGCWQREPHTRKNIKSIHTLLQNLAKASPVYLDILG
Chain of Luciferin 4-monooxygenase (Photinus pyralis) (P08659 whole entry, the tested form may be a part): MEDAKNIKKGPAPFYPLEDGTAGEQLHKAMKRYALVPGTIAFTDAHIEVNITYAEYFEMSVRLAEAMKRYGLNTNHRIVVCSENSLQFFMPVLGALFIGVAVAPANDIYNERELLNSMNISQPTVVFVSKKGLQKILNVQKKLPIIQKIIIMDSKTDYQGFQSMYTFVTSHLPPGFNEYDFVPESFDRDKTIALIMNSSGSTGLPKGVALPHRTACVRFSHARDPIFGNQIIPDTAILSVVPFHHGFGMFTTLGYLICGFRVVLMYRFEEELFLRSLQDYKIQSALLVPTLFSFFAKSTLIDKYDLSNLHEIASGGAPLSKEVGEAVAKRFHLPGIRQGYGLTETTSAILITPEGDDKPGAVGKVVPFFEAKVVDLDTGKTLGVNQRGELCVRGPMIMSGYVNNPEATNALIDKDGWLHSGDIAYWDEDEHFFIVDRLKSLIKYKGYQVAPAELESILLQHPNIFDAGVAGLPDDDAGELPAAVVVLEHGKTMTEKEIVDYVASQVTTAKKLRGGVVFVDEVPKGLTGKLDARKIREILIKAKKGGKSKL

A word on the EC50: it is the concentration giving half of the maximal effect. With `COc1ccc(-c2cc3cccc(O)c3c(=O)o2)cc1`, the Activity result in [1], in assay [8], in assay [9] and in assay [12] was “Dose-dependent effect” throughout. For the same molecule, the outcome in assay [2], in assay [7] and in [11] was Active. Further, in assay [3], the Ratio EC50 is greater than 7. Moreover, the result in [4] and in assay [5] was inactive. Further, the EC50 is 87.2 nM in assay [6] and 667 nM in [10].
For `O=c1oc(-c2ccc3c(c2)OCO3)cc2cccc(O)c12`, the result in [2] was Active.
